Here are results for twelve molecules from patent US11649222B2, “Compounds” (UNIVERSITETET I OSLO, priority 2016, dated 2023).

Format in all cases: cell-based
Assay [1] concerns resistant gram-negative MBL-based bacteria. In words: MICx: adjuvant concentration giving carbapenem MIC ≤ 2 mg/L. The settings on record: lowest concentration of compound X that results in a MIC value of ≤ 2 mg/L for carbapenem antibiotics. As for the experimental part: (§1) • Plate bacterial strain(s) on appropriate media: • Gram-negative bacteria with ESBLs or carbapenemases: green agar plates with 100 mg/L ampicillin • Gram-negative bacteria without β-lactamases: green agar plates • Gram-positive bacteria (Staphylococci and Enterococci): blood agar plates • Incubate o.n. at 37° C. […] (Should be used within 15 min of preparation). • Dilute the 0.5 McFarland suspension 1:100 into MH broth. […] Plate 10 μl of the dilution on MH agar plates (×2). Incubate o.n. at 37° C., count the colonies and calculate the final CFU/ml inoculum in the plate by multiplying the average number of colonies with 10000 and divide by 2. The final inoculum should be between 3-7×10^5 CFU/ml. • Add 50 μl of the prepared bacterial suspension to each well in the microtiter plate except negative growth control. Preparation of Compounds/Antibiotics • Calculate the desired concentration-range and volume of the compounds/antibiotics in the assay. […] Dilute the stock solution in MH broth. Make subsequent 2-fold dilutions in MH broth of the desired concentrations if a concentration range is to be tested (remember the extra dilution factor in the assay plate). Always include extra volume for pipetting. Take into consideration stock solutions that are made in buffers that have an effect on bacterial growth (e.g. DMSO).

Assay [2] has as its system P. aeruginosa K34-7 (VIM-2). Put plainly: Microbroth dilution MIC of carbapenem with/without inhibitor. The settings on record: for Meropenem activity in presence of inhibitor: inhibitor 63 mg/L; for Meropenem activity (MIC) in presence of inhibitor: inhibitor 25 mg/L. As to the method: as §1
Assay [3] has as its system K. pneumoniae K66-45 (NDM-1). The description is as above. The note with it: for Meropenem activity in presence of inhibitor: inhibitor 63 mg/L; for MIC: Klebsiella pneumoniae. As for the experimental part:
as §1

The next assay relates to human hepG2 cells. In words: In vitro toxicity in human hepG2 cells (AlamarBlue viability). As for the experimental part:
For viability assays, cells were seeded in white 96-well Nunclon plates at a density of 20,000 cells/well and left overnight to adhere before experiments were conducted. Zn chelators dissolved in DMSO were added to white 96-well plates containing 20000 HepG2 cells/well at concentrations ranging from 1 to 1×10^−6 mM (max DMSO concentration never exceeded 1%) and incubated for 24 hours at 37° C. After 24 hours, AlamarBlue® cell viability reagent (Thermo Fisher, Carlsbad, USA) was added (10% final concentration) and incubated for 4 hours at 37° C.
(In general: Resazurin is reduced to fluorescent resorufin, in cell work by metabolically active cells.)

Assay [4] relates to P. aeruginosa 50692172 (NDM-1). In words: Microbroth dilution MIC of meropenem with/without inhibitor. As to the method:
as §1
(In general: Dilution methods test growth across graded concentrations, often in twofold steps.)

The test system of assay [5] is P. aeruginosa 50808021 (No MBL). The assay is described as above. The settings on record: inhibitor 25 mg/L. As for the experimental part:
as §1

Assay [6] deals with K. pneumoniae 50732159 (No MBL). The assay is described as above. The settings on record: inhibitor 25 mg/L. As for the experimental part: as §1
Another assay deals with K. pneumoniae K66-45. The settings on record: inhibitor 25 mg/L. As to the method:
After plating and grown overnight at 37° C., only single colonies, ignoring any touching the edges of the plate, were counted.
10^9 CFU K66-45 (Mueller-Hinton broth, no selection) was plated and grown overnight, 37° C. Only single colonies, ignoring any touching the edges of the plate, were counted.

In assay [7] the test system is K. pneumoniae K66-45 and P. aeruginosa K34-7. In words: Microbroth dilution MIC, carbapenem + inhibitor, two resistant clinical isolates. The note with it: with meropenem. As for the experimental part: • Plate bacterial strain(s) on appropriate media: • Gram-negative bacteria with ESBLs or carbapenemases: green agar plates with 100 mg/L ampicillin • Gram-negative bacteria without β-lactamases: green agar plates • Gram-positive bacteria (Staphylococci and Enterococci): blood agar plates • Incubate o.n. at 37° C. Day 2: Prepare the Bacterial Inoculum: • Prepare a 0.5 McFarland suspension of bacteria in 0.85% NaCl. (Should be used within 15 min of preparation). • Dilute the 0.5 McFarland suspension 1:100 into MH broth. Check the inoculum by diluting the prepared bacterial suspension 1:100 (10 μl bacterial suspension+990 μl 0.85% NaCl). Plate 10 μl of the dilution on MH agar plates (×2). Incubate o.n. at 37° C., count the colonies and calculate the final CFU/ml inoculum in the plate by multiplying the average number of colonies with 10000 and divide by 2. The final inoculum should be between 3-7×10^5 CFU/ml. • Add 50 μl of the prepared bacterial suspension to each well in the microtiter plate except negative growth control. Preparation of Compounds/Antibiotics • Calculate the desired concentration-range and volume of the compounds/antibiotics in the assay. […] Dilute the stock solution in MH broth. Make subsequent 2-fold dilutions in MH broth of the desired concentrations if a concentration range is to be tested (remember the extra dilution factor in the assay plate). Always include extra volume for pipetting. Take into consideration stock solutions that are made in buffers that have an effect on bacterial growth (e.g. DMSO).

[8] abbreviates: human hepG2 cells, read-out: IC50h.
The mark [9] stands for this setting: human hepG2 cells, 24 hours, AlamarBlue, 8 replicates, read-out: IC50.

Where two headings read alike, the source gives them in different places. Marks after values point to notes of the source that are not given here. Some results are limits rather than exact numbers.

For the molecule `C[C@H](CS)C(=O)N1CCC[C@H]1C(=O)O` [Captopril, reference compound], the MICx in assay [1] was > 1000^d μM. In addition, the “Meropenem activity in presence of inhibitor” value in [2] is 32 mg/L; in assay [3] (K. pneumoniae K66-45 NDM-1) it was 64 mg/L; in assay [4] (inhibitor 63 mg/L), 32 to 64 mg/L. Besides, the IC50 with human hepG2 cells (setting [8]) turned out to be 33 µM.

With `O=C(Cc1ccc(NC(=O)CN(CCN(Cc2ccccn2)Cc2ccccn2)Cc2ccccn2)cc1)NC[C@@H](O)CO` [Example 23, (R)-2-((2-(bis(pyridin-2-ylmethyl)amino)ethyl)(pyridin-2-ylmethyl)amino)-N-(4-(2-(2,3-dihydroxypropylamino)-2-oxoethyl)phenyl)acetamide], the “Meropenem activity (MIC) in presence of inhibitor” value in assay [2] was 1 µg/mL. Besides, the results for the “Meropenem activity in presence of inhibitor” value in assay [4] (inhibitor 25 mg/L), in assay [5] and in assay [6] were 1 mg/L, greater than 64 mg/L and 32 mg/L, respectively.

Consider `CN(C[C@H](O)[C@@H](O)[C@H](O)[C@H](O)CO)C(=O)Cc1ccc(NC(=O)CN(CCN(Cc2ccccn2)Cc2ccccn2)Cc2ccccn2)cc1` [Example 25, 2-(4-(2-((2-(bis(pyridin-2-ylmethyl)amino)ethyl)(pyridin-2-ylmethyl)amino)acetamido)phenyl)-N-methyl-N-(2,3,4,5,6-pentahydroxyhexyl)acetamide], for which the “RF - no of colonies” value with K. pneumoniae K66-45 (MEM 1 mg/L) worked out at 64 colonies. The MICx in assay [1] was found to be 31 µM. Besides, in assay [2], the “Meropenem activity (MIC) in presence of inhibitor” value is 2 µg/mL. Moreover, in assay [3] (inhibitor 31.25 μM, 50 μM and 100 μM, K. pneumoniae K66-45, read-out: MIC of MEM in the presence of inhibitor), the MIC – broadly, the least concentration at which growth counts as inhibited – was determined as 0.125 µg/mL. The IC50 in the assay on human hepG2 cells (setting [9]) and in the assay on human hepG2 cells (setting [8]) was 113 µM in each case. For the same molecule, the “Meropenem activity in presence of inhibitor” value in assay [4] (inhibitor 25 mg/L) is listed as 2 mg/L; in assay [5], greater than 64 mg/L; in assay [6], 64 mg/L.

For the molecule `O=C(CN(CCN(Cc1ccccn1)Cc1ccccn1)Cc1ccccn1)Nc1ccc(CCNC(=O)c2cnccn2)cc1` [Example 27, N-(4-(2-((2-(bis(pyridin-2-ylmethyl)amino)ethyl)(pyridin-2-ylmethyl)amino)acetamido)phenethyl)pyrazine-2-carboxamide], the figures for the “Meropenem activity in presence of inhibitor” value in assay [2] and in assay [3] (K. pneumoniae K66-45 NDM-1) were 1 mg/L and 0.125 mg/L, respectively.

On to `CN(C[C@H](O)[C@@H](O)[C@H](O)[C@H](O)CO)C(=O)Cc1ccc(NC(=O)c2ccc(CN(Cc3ccccn3)Cc3ccccn3)nc2)cc1` [Example 99, 6-((bis(pyridin-2-ylmethyl)amino)methyl)-N-(4-(2-(methyl((2S,3R,4R,5R)-2,3,4,5,6-pentahydroxyhexyl)amino)-2-oxoethyl)phenyl)nicotinamide], for which the MICx in [1] stood at 31 µM. For the same molecule, the IC50 in the assay with human hepG2 cells (setting [9]) and in the assay with human hepG2 cells (setting [8]) was 217 µM each time. Moreover, the “Meropenem activity in presence of inhibitor” value in assay [5] was greater than 64 mg/L; in assay [6], 32 mg/L.

For `O=C(Cc1ccc(NC(=O)c2ccc(CN(Cc3ccccn3)Cc3ccccn3)nc2)cc1)NC(CO)(CO)CO` [Example 100, 6-((bis(pyridin-2-ylmethyl)amino)methyl)-N-(4-(2-(1,3-dihydroxy-2-(hydroxymethyl)propan-2-ylamino)-2-oxoethyl)phenyl)nicotinamide], in assay [1], the MICx is 31 µM. Besides, the IC50 with human hepG2 cells (setting [9]) was greater than 100 µM; in the assay with human hepG2 cells (setting [8]), 118 µM. In addition, the “Meropenem activity in presence of inhibitor” value is on record as greater than 64 mg/L in [5] and 32 mg/L in assay [6].

In the assay with human hepG2 cells (Homo sapiens, HepG2, 24 h), `COC(=O)c1ccc(CN(Cc2ccccn2)Cc2ccccn2)s1` [Example 180, Methyl 5-((bis(pyridin-2-ylmethyl)amino)methyl)thiophene-2-carboxylate] showed an IC50 of roughly 80 µM. In assay [7], the “adjuvant effect at an inhibitor concentration of 25 mg/L” value is on record as “completely abolishes the adjuvant effect”.

Consider `CN(C[C@H](O)[C@@H](O)[C@H](O)[C@H](O)CO)C(=O)c1ccc(CN(Cc2ccccn2)Cc2ccccn2)s1` [Example 182, 5-((bis(pyridin-2-ylmethyl)amino)methyl)-N-methyl-N-((2S,3R,4R,5R)-2,3,4,5,6-pentahydroxyhexyl)thiophene-2-carboxamide], for which the “adjuvant effect at an inhibitor concentration of 25 mg/L” value in assay [7] is recorded as “completely abolishes the adjuvant effect”.

For `CN(C[C@H](O)[C@@H](O)[C@H](O)[C@H](O)CO)C(=O)c1ccc(CN(Cc2ccccc2)Cc2ccccc2)nc1` [Example 185, 6-((dibenzylamino)methyl)-N-methyl-N-((2S,3R,4R,5R)-2,3,4,5,6-pentahydroxyhexyl)nicotinamide], the “adjuvant effect at an inhibitor concentration of 25 mg/L” value in assay [7] is recorded as “completely abolishes the adjuvant effect”.

As for `CN(C[C@H](O)[C@@H](O)[C@H](O)[C@H](O)CO)C(=O)c1ccc(CN(Cc2ccccc2)Cc2ccccn2)nc1` [Example 187, 6-((benzyl(pyridin-2-ylmethyl)amino)methyl)-N-methyl-N-((2S,3R,4R,5R)-2,3,4,5,6-pentahydroxyhexyl)nicotinamide], the “adjuvant effect at an inhibitor concentration of 25 mg/L” value in assay [7] is reported as “completely abolishes the adjuvant effect”.

On to `COC(=O)[C@@H](C)NC(=O)[C@@H](C)NC(=O)Cn1cc(CN(Cc2ccccn2)Cc2ccccn2)nn1` [Example 194, Methyl (2-(4-((bis(pyridin-2-ylmethyl)amino)methyl)1H-1,2,3-triazol-1-yl)acetyl)-D-alanyl-D-alaninate, reference compound], for which the “RF - no of colonies” value in the assay on K. pneumoniae K66-45 (MEM 1 mg/L) is on record as “tntc (tntc = too numerous to count, plates containing either confluent growth or >1000 colonies)”; in the assay on K. pneumoniae K66-45 (MEM 2 mg/L), “tntc (tntc = too numerous to count, plates containing either confluent growth or >1000 colonies)”; in the assay on K. pneumoniae K66-45 (MEM 4 mg/L), “tntc (tntc = too numerous to count, plates containing either confluent growth or >1000 colonies)”; with K. pneumoniae K66-45 (MEM 8 mg/L) it was “tntc (tntc = too numerous to count, plates containing either confluent growth or >1000 colonies)”. The results for the “Meropenem activity in presence of inhibitor” value in assay [4] (inhibitor 25 mg/L), in [5] and in assay [6] were 32 mg/L, greater than 64 mg/L and 32 mg/L, respectively.

`C[C@@H](O)[C@H]1C(=O)N2C(C(=O)O)=C(S[C@@H]3CN[C@H](CNS(N)(=O)=O)C3)[C@H](C)[C@H]12` [doripenem, reference compound]: the MIC in assay [2] (Pseudomonas aeruginosa, read-out: MIC of doripenem alone) is 64 µg/mL; in assay [3] (K. pneumoniae K66-45 NDM-1, read-out: MIC of doripenem alone), greater than 64 µg/mL.
